From ChEMBL document CHEMBL1145689, “Phospholipase A 2 Inhibitors from an Erythrina Species from Samoa” (J Nat Prod, 1997) come the findings set out here.

Chain of Phospholipase A2 (P04054 whole entry): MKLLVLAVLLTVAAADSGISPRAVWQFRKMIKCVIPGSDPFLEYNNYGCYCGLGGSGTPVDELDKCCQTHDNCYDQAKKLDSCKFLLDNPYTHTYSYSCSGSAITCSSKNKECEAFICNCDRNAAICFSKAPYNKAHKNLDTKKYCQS

This assay has as its target Phospholipase A2 (Homo sapiens, UniProt P04054). As to the kind of experiment: Inhibition of PLA2 in fMLP and A23187 ionophore-stimulated human HL60 cells assessed as effect on [3H]arachidonic acid release. Format: cell-based. As to conditions: hl-60.
`CC(C)=CCc1cc(C2CC(=O)c3c(cc(O)c(CC=C(C)C)c3O)O2)cc(CC=C(C)C)c1O` (stereo not drawn): the IC50 was 10 µM.

Consider `CC(C)=CCc1cc([C@@H]2CC(=O)c3c(O)cc(O)cc3O2)cc(CC=C(C)C)c1O` [ABYSSINONE V], for which the IC50 came out at 6 µM.

In the case of `CC(C)=CCc1cc2c(cc1O)OCc1c-2oc2c(CC=C(C)C)c(O)ccc12` [ERYCRYSTAGALLIN], the IC50 amounted to 3 µM.
